From patent US20210395305A1, “PEPTIDE FOR COSMETIC APPLICATION” (COLOSSEUM COMBINATORIAL CHEMISTRY CENTRE FOR TECHNOLOGY …, priority 2018, published 2021)
Read-outs that look alike come from different tables or passages of the source. Ends that are not written are not given here.

Tests used:
[1] = target: T1, NGF receptors, TrkA and p75 (Rattus norvegicus, UniProt P35739); experiment: PC12-Luci c-fos promoter luciferase reporter assay; assay type: cell-based; details: for Ec50 (luminescence): PC12-Luci cells, 4 h at 37° C.
T1 construct: PC12-Luci cells, which endogenously express the NGF receptors, TrkA and p75; endogenous in cells; host or cells: PC12-Luci (rat pheochromocytoma clone B9 with the human c-fos promoter-luciferase reporter)
T1 sequence (P35739 33-799): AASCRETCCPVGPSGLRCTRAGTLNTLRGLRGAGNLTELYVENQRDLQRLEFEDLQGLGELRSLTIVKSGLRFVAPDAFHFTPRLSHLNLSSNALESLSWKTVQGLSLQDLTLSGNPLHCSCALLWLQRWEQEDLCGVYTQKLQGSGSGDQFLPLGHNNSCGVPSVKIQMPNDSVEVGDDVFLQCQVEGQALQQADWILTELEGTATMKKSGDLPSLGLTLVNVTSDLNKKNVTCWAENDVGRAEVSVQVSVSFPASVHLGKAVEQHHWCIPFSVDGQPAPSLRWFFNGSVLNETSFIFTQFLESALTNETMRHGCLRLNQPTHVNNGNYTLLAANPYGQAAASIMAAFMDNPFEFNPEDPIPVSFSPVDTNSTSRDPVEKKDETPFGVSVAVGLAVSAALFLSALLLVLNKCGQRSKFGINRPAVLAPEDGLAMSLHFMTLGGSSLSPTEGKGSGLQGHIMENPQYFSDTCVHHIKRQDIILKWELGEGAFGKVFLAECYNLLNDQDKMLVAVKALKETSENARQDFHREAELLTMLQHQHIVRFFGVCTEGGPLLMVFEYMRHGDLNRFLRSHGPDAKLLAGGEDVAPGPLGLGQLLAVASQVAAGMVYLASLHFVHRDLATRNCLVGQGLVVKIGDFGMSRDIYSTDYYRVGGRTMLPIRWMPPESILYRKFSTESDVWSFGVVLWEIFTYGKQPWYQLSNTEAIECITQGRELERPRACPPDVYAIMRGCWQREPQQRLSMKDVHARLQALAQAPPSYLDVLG
Text: NGF treatment of rat pheochromocytoma cell line (PC12) results in c-fos mRNA and protein expression (J. Milbrandt, “Nerve growth factor rapidly induces c-fos mRNA in PC12 rat pheochromocytoma cells”, Proc Natl Acad Sci USA. 1986 July; 83(13):4789-93).
Starting from the work of Milbrandt, the Applicant monitored the activation of NFG receptor by using a clone (B9) stably transfected with the human c-fos promoter driving a luciferase reporter gene (PC12-Luci). This clone was used to set up a functional and quantitative assay for the characterization of the activity of NGF1-14.
The experiments were performed in PC12-Luci cells, which endogenously express the NGF receptors, TrkA and p75. Cells were maintained in the following complete culture medium comprising: • DMEM-F12 mixture (DMEM-F12 Glutamax; Life Technologies, GIBCO 10565-018) • 5% fetal bovine serum (FBS, Sigma Aldrich, F7524) • 10% horse serum (HS, Sigma Aldrich, H1138) • 1% penicillin-streptomycin (Life Technologies, GIBCO 15140-122)
For passaging, cells were gently washed with PBS and then incubated with trypsin for 5 min at room temperature or 37° C. Media was added and cells were resuspended (6-8 times).
Experiments were performed in sestuplicate, in black 96 well previously coated with 50 μg/ml collagen type I.
PC-12-Luci cells were seeded at 25000/well in 100 μl complete growth medium. 24h later, cell medium was carefully removed. Cells were then incubated with five concentrations (range 30 ng/ml-300 μg/ml, 1:10 serial dilutions) of NGF1-14 in standard Tyrode buffer with 0.1% BSA (50 μl/well) for 4 h at 37° C. The reference Negermin™ compound (by MimeTech Srl) has been added at 30 μg/ml, as reference. The stock solution of NGF1-14 was resuspended in sterile water, aliquoted and stored at −20° C. The stock solution of Negermin™ compound was resuspended in formulation buffer and stored at −20° C.
After the incubation, the basal level of luminescence was monitored for 30 seconds, by using EnSpire multimode plate reader (PerkinElmer). Then, a Triton-Luciferin mix was added to cells (50 μl/well), in a 1:1 ratio, leading to cell lysis. The obtained luminescence signal was monitored for other 60 seconds. […]
All luminescence values were normalized versus the basal level of luminescence. The response value was calculated as the mean of luminescence of the kinetic recorded.
Data were further analyzed (e.g. calculation of dose-response curves and EC50 values) and graphs plotted using GraphPad Prism (GraphPad Software, Inc.). […]

pro-Collagen I = experiment: Pro-Collagen I in dermis by Elisa, single administration test; assay type: in vivo, rat
Experimental: (§1) Since the proteins of extracellular matrix collagen and elastin are involved in wound repair, skin aging and photo-aging, the effect of topical application of NGF1-14 on the levels of these two proteins was also analyzed.
(§2) Pro-Collagen I and Elastin were measured by using commercial Elisa kits, first in a single administration test, followed by a two weeks administration test.
(§3) A similar trend was observed by analyzing the two proteins: an increase of both pro-Collagen I (A) and Elastin (B) was detected in dermis of NGF1-14 treated rats at 0.1% dose, after sonication. The effect was less appreciable without applying the ultrasounds.
(§4) The protective action of NGF1-14 at 0.1% dose (P 0.1%) was evaluated on adult skin exposed to sub-erythematous levels of UV-B (MED=60 mJ/cm^2 twice a day) first in a single administration test (one day) then for three weeks before the treatment. This experimental procedure is also refereed as Photo-AGing model (PAG) since it induces structural and molecular changes occurring in aging.

normal human melanocytes = experiment: Tanning action: melanin content by ELISA; assay type: cell-based; details: cultured for a week, various concentrations
Experimental: The effect of topical application of NGF1-14 on the activation of melanocytes to produce melanin has been assessed.
According to already set up protocols, primary cell cultures of normal human melanocytes were seeded in Petri dishes and cultured for a week, with and without the presence of NGF 1-14 at various concentrations. The melanin content was measured by enzyme immunoassay ELISA.

[2] = Skin distribution of NGF1-14 gel preparation, HPLC-UV of epidermis and dermis extracts; assay type: in vivo, rat; details: 0.1% gel, following LFS, compared to vehicle
Experimental: Distribution experiments were carried out to evaluate the ability of NGF1-14 gel preparation to penetrate the corneal stratus and reach the dermis, also by using sonophoresis-like strategies to facilitate skin penetration.
Tape-striping and ultrasounds were applied on the shaved dorsal area of female adult Sprague Dawley (SD) rats (10-12 months).
Low-Frequency Sonophoresis (LFS) was applied using a Sonics Ultrasonic Processor Model VCX 400 operating at a frequency of 20 KHz (tip displacement of about 2 cm, continuous mode) for 6 or 10 minutes, according to common clinical practices, since a prolonged use of sonophoresis is known to increase skin permeation but also to a considerable thermal damage, which is not appropriate for the use (Ref. International Journal of Health Sciences & Research 477 Vol. 5; Issue: 5; May 2015: A Review on Ultrasound Parameters and Methods of Application in Transdermal Drug Delivery).
Vehicle control and NGF1-14 gel preparation were administered on the skin portion pre-treated with LFS (S) or on shaved/tape striping skin (NS).
Treatment was repeated after two hours, and rats were sacrificed to dissect skin samples 2 hours after the second gel/NGF mimetic application. […]
Quantification of NGF 1-14 was determined by HPLC-UV, on a reverse phase C4 column, eluting with phosphate buffer (pH 7.4) and acetonitrile. […]

TrkA = TrkA phosphorylation by Western Blot; assay type: in vivo, rat; details: dermis samples, with or without LFS, compared to vehicle controls; FIG. 4
Elastin = Elastin in dermis by Elisa, single administration test; assay type: in vivo, rat
Experimental: as §1, §2, §3, §4

[3] = pKa by potentiometric pH-metric titration (Sirius T3); assay type: physicochemical; details: 0.15 M KCl solution (ISA water), 25±1° C.
Experimental: Experimental pKa as well as partition and distribution coefficients (log P and log D) were determined using an automated potentiometric titrator Sirius T3 (Sirius Analytical Instruments Ltd., East Sussex, UK) equipped with an Ag/AgCl double junction reference pH electrode, a Sirius D-PAS spectrometer and a turbidity sensing device. The pH electrode was calibrated titrimetrically in the pH range 1.8-12.2. An overhead stirrer was used and a temperature probe monitored the temperature during the course of the titration. The titration experiments were conducted in 0.15 M KCl solution (ISA water) under an argon atmosphere at a temperature of 25±1° C. All tests were performed using standardized 0.5 M KOH and 0.5 M HCl as titration reagents, for the partition coefficient tests a saturated Octanol in ISA water (5% of ISA water) was used as partition solvent. The pKa is determined by potentiometric method by pH-metric titration. The powder (around 0.5 mg) was dissolved in 1.5 ml of ISA water and the titration was performed in triplicate in the pH range 2.0-12.0. Log P is performed in triplicate by dissolving the powder (around 0.7 mg) in 1 ml of ISA water followed by pH metric titration in three different percentage of Octanol (generally 50%, 60%, 70%). The predicted pKa and the calculated log P for the instrumental model was performed using ACD/Percepta.

[4] = without applying the ultrasounds

| Substance | level of basal luminescence ([1]; 30 ng/ml-300 μg/ml, 4 h) | in vitro potency compared with reference standard ([1]; Negermin™ compound added at 30 μg/ml) | Ec50 (luminescence) [1] [ng/mL] | pro-Collagen I in dermis (pro-Collagen I; 0.1% dose, after sonication, FIG. 5A) | Collagen I in dermis (pro-Collagen I; [4]) | melanin content (normal human melanocytes) | NGF1-14 level in epidermis ([2]; FIG. 3A) | NGF1-14 level in dermis ([2]; FIG. 3B) | phosphorylation levels of TrkA (TrkA) | Elastin in dermis (Elastin; 0.1% dose, after sonication, FIG. 5B) | Elastin in dermis (Elastin; [4]) | pKa ([3]; read-out: Acid pKa) | pKa ([3]; read-out: Base pKa) |
| --- | --- | --- | --- | --- | --- | --- | --- | --- | --- | --- | --- | --- | --- |
| SSSHPIFHRGEFSV [NGF1-14, SSSHPIFHRGEFSV] | increases the level of basal luminescence in a dose-dependent manner | higher than reference standard Negermin™ compound, but lower than rhNGF | 290.95 | increase | comparable to the positive control value | An increase was observed | significant increase | significant increase | increased phosphorylation levels of TrkA | increase | slight increase | 4.42 ± 0.05 | 7.41 ± 0.07 |
| rhNGF: human recombinant NGF |  |  | 1.4 |  |  |  |  |  |  |  |  |  |  |
